Reference: patent publication US8389739B1, “Modulators of retinoid-related orphan receptor gamma” (Orphagen Pharmaceuticals, priority 2006, dated 2013)
“Also recorded” adds a separate entry of the source.

What was measured:
[1] = test system: IL-17 release from CD4+ naïve murine T cells; assay: IL-17 release into culture medium during TH-17 differentiation (ELISA); format: cell-based, mouse; details: 3 μM, in the presence or absence of 3 μM OR-12872, day 4 (FIG. 10)
Method: FIG. 10. IL-17 release into culture medium was measured four days after induction of TH-17 differentiation in CD4^+ naïve murine T cells, following the methods of FIG. 7. Each antagonist (OR-885, OR-1050, OR-13571, and OR-2161) was incubated in the cultures at 3 μM, in the presence or absence of OR-12872, also at 3 μM. On day 4, culture supernatants were saved and IL-17 measured by ELISA.
Purified CD4^+CD62L^+ T cells were plated in 24-well plates with 2−4×10^5 cells in 700 ul volume of RPMI 1640 media containing 10% heat-inactivated FCS, 100 IU penicillin, 100 μg/ml streptomycin, 1× non-essential amino acids, 1 mM pyruvate, 2 mM glutamine, and 50 μM […] (Veldhoen, Hocking et al. 2006). T cells were stimulated with exogenous cytokines and anti-CD3/anti-CD28 conjugated Dynabeads (Dynal Biotech, Oslo) at a 1:1 ratio of beads to cells. Exogenous cytokines used were: 4 ng/ml TGF-β, 20 ng/ml of IL-6, or 10 ng/ml IL-12. RORγ agonist and antagonist ligands, dissolved in DMSO, were added directly to cell cultures, to a final concentration of 0.01%. Cytokines and RORγ ligands were added immediately after cell plating.
ELISA kits for mouse IL-17 and human IL-17 were from eBioscience (San Diego, Calif.). ELISA assays were performed following the manufacturer's protocol. Certain samples were diluted 20-fold to avoid maximization of enzymatic signals. […]

EAE = EAE model, C57BL/6 mice immunized with MOG35-55; format: in vivo; details: for median day of onset of symptoms (clinical score 1 or greater): oral gavage twice a day, corn oil vehicle day 18
liver triglycerides = assay: Liver triglycerides after oral dosing in C57BL/6 mice; format: in vivo
Method: […] A small piece of the liver (˜200 mg) was weighed and extracted to determine triglyceride content. Glycerol was liberated from liver triglycerides by hydrolysis in base. The liver fragment was incubated overnight at 55° C. in 0.35 mls of ethanolic KOH (2 parts EtOH: 1 part 30% KOH) in a closed tube. A solution of 50% ethanol in water was added to bring the volume of each tube to 1.0 ml. The solution was cleared of debris by centrifugation, and the resulting supernatant increased to 1.2 ml with further addition of 50% ethanol. Aqueous 1 M MgCl2 (215 μl) was added to 200 μl of the supernatant, and the mixture was cleared by centrifugation again after standing 10 min on ice. Glycerol levels were measured with the Sigma Free Glycerol Reagent (Sigma-Aldrich, St. Louis, Mo.) according to the manufacturer's instructions. The triglyceride concentration (in milligrams per gram of liver wet weight) was determined by assuming average molecular weight of 1000 daltons for each molecule of triglyceride.

Row | SMILES | IL-17 release during TH-17 differentiation [1] | median day of onset of symptoms (clinical score 1 or greater) (EAE; 30 mg/kg total daily dose) | onset of EAE, in words (EAE; 100 mg/kg OR-1050 per day versus vehicle) | median day of onset of symptoms (clinical score 1 or greater) (EAE; 100 mg/kg total daily dose, p<0.05) | progress of disease and weight loss, in words (EAE; high dose (50 mg/kg, 2× per day), FIG. 11A, 11B) | inflammatory infiltration in the spinal cord (EAE; high dose, FIG. 11C, p<0.07, Mann-Whitney) | Liver triglycerides (liver triglycerides; OR-1050 100 mg/kg (50 mg/kg twice per day by gavage, corn oil) for 7 days, vehicle 34.7 ± 5.7) | liver triglycerides, in words (liver triglycerides; daily exposure to 100 mg/kg OR-1050, six day study)
1 | COC(C)CCC(C)C1CCC2C3CC(O)C4CC(O)CCC4(C)C3CCC12C (centres unmarked) [OR-12872, 17-(4-Methoxy-1-methyl-pentyl)-10,13-dimethyl-hexadecahydro-cyclopenta[a]phenanthrene-3,6-diol] | reverses the effect of each of the antagonists | – | – | – | – | – | – | –
2 | CCN(c1ccc(C(O)(C(F)(F)F)C(F)(F)F)cc1)S(=O)(=O)c1ccc([N+](=O)[O-])cc1 [OR-1050, N-Ethyl-4-nitro-N-[4-(2,2,2-trifluoro-1-hydroxy-1-trifluoromethyl-ethyl)-phenyl]-benzenesulfonamide] | – | 16 days | slows the onset of EAE; also recorded: significantly (p<0.05) delayed | 26 days | inhibits progress of the disease and weight loss | reduced | 119.5 ± 18.8 mg/g | markedly elevated
